Patent US20210261618A1 (TAIAN CITY QIHANG BIOTECHNOLOGY CO., priority 2018, published 2021)
Read-outs that look alike come from different tables or passages of the source. Where no end group is shown, it is not given here.

Key:
[1] = test system: transplanted tumor cells of human osteosarcoma MG63; settings: xenograft tumor after 4 weeks of administration; taxol group, each dose group of sp2
Method: 2. AnnexinV-FITC cell apoptosis (annexinV)
2) 50,000-100,000 resuspended cells was taken, and centrifuged at 1000 g for 5 min. The supernatant was discarded, and 195 μl of AnnexinV-FITC binding solution was added to gently resuspend the cells.
6) Immediately flow cytometry detection was performed, wherein AnnexinV-FITC was green fluorescence, and PI was red fluorescence.

[2] = Kunming mice
Method: (§1) 20 Kunming mice, healthy adults, half male and half male, weight 20 g±2%
(§2) 4) Route of administration: tail vein injection;
(§3) 5) Administration method: animal acute toxicity test with a single dose was to study the toxic reaction of the animal within a certain period of time after the animal was given the test substance once or multiple times within 24 h. In this experiment, 3 doses within 24 h were used, namely 0.5 mL/each, 3 times/day, with an interval of 3 h;
(§4) 6) Observing and recording the reaction symptoms of the test animals for 14 consecutive days with twice a day on the day of administration and the next day, and then once a day;
(§5) 7) At the end of the experiment, the animals were killed by cervical dislocation. All the test animals were dissected to observe whether their tissues and organs were changed in volume, color, texture, etc. and recorded;

in vivo = settings: both, Kunming, mouse, iv, 2000 mg/kgBW
Method: as §1, §2, §3, §4, §5

[3] = 1 d after 2000 mg/kgBW tail vein
[4] = 3 d after 2000 mg/kgBW tail vein
[5] = 5 d after 2000 mg/kgBW tail vein
[6] = 7 d after 2000 mg/kgBW tail vein
[7] = 9 d after 2000 mg/kgBW tail vein
[8] = 11 d after 2000 mg/kgBW tail vein
[9] = 13 d after 2000 mg/kgBW tail vein

Compound	tumor cell apoptosis compared to the model group [1]	animal weight, female (group value) [2, 3]	animal weight, male (group value) [2, 3]	animal weight, female (group value) [2, 4]	animal weight, male (group value) [2, 4]	animal weight, female (group value) [2, 5]	animal weight, male (group value) [2, 5]	animal weight, female (group value) [2, 6]	animal weight, male (group value) [2, 6]	animal weight, female (group value) [2, 7]	animal weight, male (group value) [2, 7]	animal weight, female (group value) [2, 8]	animal weight, male (group value) [2, 8]	animal weight, female (group value) [2, 9]	animal weight, male (group value) [2, 9]	maximum non-toxic dose administered intravenously ([2]; tail vein, observed 14 days) [mg/kgBW]	NOAEL at 336 h (in vivo) [mg/kg]
CC(=O)O[C@H]1C(=O)[C@@]2(C)[C@H]([C@H](OC(=O)c3ccccc3)[C@]3(O)C[C@H](OC(=O)[C@H](O)[C@@H](NC(=O)c4ccccc4)c4ccccc4)C(C)=C1C3(C)C)[C@]1(OC(C)=O)CO[C@@H]1C[C@@H]2O [taxol]	increase the tumor cell apoptosis rate (P<0.05)																
RVLNGPEEEAAAPAE [sp2]		26.458	27.565	28.245	31.131	29.135	33.177	30.603	35.699	31.884	37.611	33.355	38.017	33.25	38.456	2000	2000
